Assay results: publication PMC10117764, “The roles of serine hydrolases and serum albumin in alisol B 23-acetate hydrolysis in humans” (Frontiers in Pharmacology, 2023)
Several values for one entry are separate records, joined by “and”; a condition that tells them apart may be missing. Identical values can stand only once.

Experiments:
[1] = Hydrolytic half-life of AB23A in rat liver microsomes; format: in vitro ADME; details: rat liver microsomes (RLMs), pH 7.4, RLMs 0.10 mg/mL, read-out: T1/2 (hydrolytic half-life)
Experimental: The hydrolytic half-lives (t1/2) of AB23A in human plasma and different human tissue preparations were carried out according to the procedure of in vitro metabolic stability studies ([Ge et al., 2013]). The incubation mixture (1,000 μL) consisted of PBS (pH 7.4), enzyme sources (HLMs/HIMs/human plasma) and AB23A. 25% diluted human plasma was used, the protein concentrations of other tissue microsomes were 0.1 mg/mL. The 100 μL incubation mixture was moved to another containing ice-cold acetonitrile tube at different time points (0, 5, 15, 30, 45, 60, 90, 120 min). All samples were centrifuged for 30 min at 20,000 g 4°C and took the supernatants for LC-UV analysis.
The incubation conditions were as follows: the classic incubation system included 100 mM potassium phosphate buffer (PBS, pH 7.4), enzyme sources, and AB23A. In all incubations, PBS and enzyme sources were pre-incubation at 37 °C for 3 min and the reaction was started by adding AB23A (the organic solvent content at most 1%). After reacting 1 h, ice-cold acetonitrile was added to terminate the reaction and precipitate proteins. The samples were centrifuged for 30 min at 20000 × g, 4 °C, and the supernatants were taken for further LC-UV analysis.

[2] = biological target: T1, hSA (Homo sapiens, UniProt P02768); assay: Identification of the modification sites of hSA by AB23A (LC-MS/MS of tryptic peptides); details: hSA 1 mg/mL, AB23A 50 μM, 37°C; following co-incubation
T1 construct: purchased Sigma-Aldrich Lot#SLCC9268
Experimental: […] The soluble impurities and unbound molecules were washed by ultrapure water (200 μL) ([Nel et al., 2015]). After denaturation for 1 h in 8 M urea solution at 37°C, the mixture was alkylated with dithiothreitol and iodoacetamide in the dark, washed twice with 200 μL ultrapure water, and finally washed with 200 μL 50 mM ammonium bicarbonate. The samples were digested overnight with 2 μL trypsin in 50 mM ammonium bicarbonate solution at an enzyme-to-substrate ratio of 1:50 (w/w). The trypsin digest was collected and washed with 50 μL NaCl solution (500 mM). The peptides were desalted by the MonoSpin C18 (GL Sciences). Subsequently, the eluents were dried by the vacuum pump and resolved in 40 μL 0.1% formic acid for analyses (please refer to the Supplementary Material for more details).

[3] = biological target: T1, hSA; assay: Kinetic analysis of AB23A hydrolysis in hSA; format: in vitro ADME; details: 1 h incubation
Experimental: (§1) The enzymatic kinetics of AB23A hydrolysis in different tissue preparations (HLMs, HIMs, human plasma) and human recombinant enzymes (hCES1A, hCES2A, hSA, hBchE) were analyzed. The incubation system (200 μL) consisted of PBS, each tested enzyme, and AB23A (ranging from 0 to 1,000 μM). After incubating for 1 h, the supernatants were then used for LC-UV analysis. The kinetic parameters of AB23A hydrolysis were fitted by the following Michaelis−Menten Eq. 1 ([Zhang et al., 2022]). V=(Vmax×[S])⁄(Km+[S]) (1) Here, K m is the Michaelis constant of AB23A hydrolysis, V max is the maximum velocity of AB23A hydrolysis, V max /K m is used to calculate the intrinsic clearance (CL int ).

[4] = biological target: T1, hSA; assay: Reaction phenotyping assay of AB23A hydrolysis, hSA; format: in vitro ADME; details: hSA 500 μg/mL (Figure 3), AB23A 20 μM, 60 min, pH 7.4 at 37°C
Experimental: The hydrolytic rates of AB23A in different human recombinant enzymes (hCES1A, hCES2A, hPL, hIAH1, hNotum, hAchE, hBchE, hSA, hCTSA, hMAGL) were assayed. […] After incubation for 1 h at 37°C, ice-cold acetonitrile was added to terminate the reaction and precipitate proteins. The supernatants by centrifuging were used to quantify the formation rates of AB by LC-UV analysis. The detection wavelength of AB was 196 nm.

[5] = Kinetic analysis of AB23A hydrolysis in human plasma; format: in vitro ADME; details: 25% dilution
Experimental: as §1

[6] = biological target: T2, hCES2A (Homo sapiens, UniProt O00748); assay: Kinetic analysis of AB23A hydrolysis in hCES2A; format: in vitro ADME; details: 1 h incubation
T2 construct: 10xHis; made in house; host or cells: HEK293-F cells, pTT5 vector, purified from conditioned medium
T2 sequence (O00748 27-559): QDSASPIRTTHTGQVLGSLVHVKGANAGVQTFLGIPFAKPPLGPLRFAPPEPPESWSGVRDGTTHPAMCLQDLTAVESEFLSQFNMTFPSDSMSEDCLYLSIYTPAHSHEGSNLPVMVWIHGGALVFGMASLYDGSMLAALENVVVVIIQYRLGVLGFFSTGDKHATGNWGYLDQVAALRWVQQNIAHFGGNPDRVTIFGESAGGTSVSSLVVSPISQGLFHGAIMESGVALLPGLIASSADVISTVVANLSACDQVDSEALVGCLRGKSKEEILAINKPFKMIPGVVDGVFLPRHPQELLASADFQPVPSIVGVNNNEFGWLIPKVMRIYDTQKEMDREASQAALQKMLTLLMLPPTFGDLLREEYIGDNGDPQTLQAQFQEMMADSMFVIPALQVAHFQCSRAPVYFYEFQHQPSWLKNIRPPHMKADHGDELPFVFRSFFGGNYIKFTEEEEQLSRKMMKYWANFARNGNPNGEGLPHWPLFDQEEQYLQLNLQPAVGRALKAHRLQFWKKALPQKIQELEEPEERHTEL
Experimental: as §1

[7] = Stability of AB23A in PBS under physiological conditions; format: physicochemical; details: pH 7.4 at 37°C
Experimental: AB23A and its hydrolytic metabolite were separated by ACQUITY UPLC I-Class plus system (Waters Corporation, Milford, United States) coupled with ACQUITY UPLC HSS T3 (100 mm × 2.1 mm, 1.8 μm, Waters, United States), and identified by using Q-Exactive quadru-pole-Orbitrap mass spectrometer. The mobile phases consisted of 0.1% formic acid in water (A) and acetonitrile (B) with the elution gradients were as follows: 0–2 min, 5% B, 2–4 min, 5%–30% B, 4–8 min, 30%–50% B, 8–10 min, 50%–80% B, 10–14 min, 80%–100%, 14–15 min, 100% B, 15–15.1 min, 100%–5% B, 15.1–16 min, 5% B. The flow rate was set at 0.35 mL/min, while the temperature of chromatographic column was maintained at 45°C. The mass range was set from m/z 80 to 1,200. Other MS conditions were as follows: Resolution and AGC target were set at 30000 and 1e^6, the maximum IT was 50 ms and loop count was set 10. (N) CE/stepped (N)CE was set 10, 20, 40 ev. All data were analyzed by PeakView 2.2 software and Thermo Xcalibur.
The incubation conditions were as follows: the classic incubation system included 100 mM potassium phosphate buffer (PBS, pH 7.4), enzyme sources, and AB23A. In all incubations, PBS and enzyme sources were pre-incubation at 37 °C for 3 min and the reaction was started by adding AB23A (the organic solvent content at most 1%). […]

[8] = Kinetic analysis of AB23A hydrolysis in HLMs; format: in vitro ADME, human
Experimental: as §1

T1 sequence (P02768 25-609): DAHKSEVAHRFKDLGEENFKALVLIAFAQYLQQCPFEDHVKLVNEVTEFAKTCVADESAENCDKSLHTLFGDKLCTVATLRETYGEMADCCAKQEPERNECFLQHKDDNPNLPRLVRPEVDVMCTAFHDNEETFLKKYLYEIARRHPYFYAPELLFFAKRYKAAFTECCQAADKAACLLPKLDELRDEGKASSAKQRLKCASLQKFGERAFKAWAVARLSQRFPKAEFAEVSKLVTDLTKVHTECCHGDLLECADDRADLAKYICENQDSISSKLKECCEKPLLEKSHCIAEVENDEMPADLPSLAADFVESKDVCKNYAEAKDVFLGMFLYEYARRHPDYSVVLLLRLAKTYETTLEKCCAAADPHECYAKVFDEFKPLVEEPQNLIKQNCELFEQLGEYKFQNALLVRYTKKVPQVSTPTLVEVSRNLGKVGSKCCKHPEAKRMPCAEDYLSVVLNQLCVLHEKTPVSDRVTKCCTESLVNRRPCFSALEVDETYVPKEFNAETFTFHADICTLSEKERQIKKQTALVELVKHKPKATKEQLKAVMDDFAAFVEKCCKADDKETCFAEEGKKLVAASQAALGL

SMILES: CC(=O)O[C@H](C[C@@H](C)C1=C2C[C@H](O)C3[C@@]4(C)CCC(=O)C(C)(C)C4CC[C@]3(C)[C@@]2(C)CC1)[C@H]1OC1(C)C (stereo partly shown) [AB23A, Alisol B 23-acetate]
- half-life [1]: 55.63 ± 0.11 min
- Number of lysines in hSA acylated by AB23A [2]: 39
- K m of AB23A hydrolysis [3]: 261.20 ± 18.69 µM
- Hydrolytic rate (formation of AB) in reaction phenotyping [4]: also catalyzed this hydrolytic reaction
- K m of AB23A hydrolysis [5]: 237.10 ± 15.00 µM
- V max of AB23A hydrolysis [5]: 4.536 ± 0.09 nmol/min/mL and 4.536 ± 0.09 ^b nmol/min/mL
- K m of AB23A hydrolysis [6]: 58.96 ± 2.41 µM
- Stability in PBS [7]: very stable
- K m of AB23A hydrolysis [8]: 41.18 ± 3.46 µM
- V max of AB23A hydrolysis [8]: 4.77 ± 0.08 nmol/min/mg protein and 4.77 ± 0.08 ^a nmol/min/mg protein
